Assay results as given in US20170252433A1, “PSMA-RELATED THERAPIES” (Memorial Sloan Kettering Cancer Center, priority 2014, published 2017).

What was measured:
LNCaP-wt xenografts = assay: Photoacoustic imaging of tumor vascularization and oxygenation; type: in vivo, male athymic, nude mice; details: 0.4 mM, 100 μL retro-orbital injection daily
Experimental: Male, athymic, nude mice (Harlan Laboratories, Indianapolis, Ind.) were implanted with LNCaP xenografts (3 million cells in 100 μL Matrigel). Immediately post xengraft implantation, the mice were treated daily iv with 2-PMPA (0.4 mM, 100 μL retro-orbital injection). Tumor vascularization and oxygenation was assessed 15 days after treatment commencements, using the Vevo LAZR small-animal photoacoustic imaging platform (Visualsonics, Toronto, ON, Canada).
The tumors used in the study had roughly the same size. […] (FIG. 6 a-b). […] (FIG. 6c)

[1] = tested on: phosphorylation of CAMKK2, AMPKα and AKT in PSMA-expressing and PSMA-negative (PC3-wt) cells; assay: Phosphorylation status by isoelectric focusing (NanoPro); type: cell-based, human; details: for CAMKK2 phosphorylation: 5 μM, 48 h, FIG. 3b
Experimental: (§1) CAMKK2, AMPKα and AKT antibodies were purchased from Cell Signaling (Danvers, Mass.). Cells were grown to confluence and treated with 2-PMPA (5 μM, Tocris) for 48 h. The phosphorylation status of proteins of interest was determined with an isoelectric-focusing instrument (NanoPro1000, Protein Simple, Santa Clara, Calif.), where the samples were prepared and analyzed according to the supplier's guidelines. Determination of site-specific phosphorylation of key proteins was performed with a human phosphor-kinase array (ARY003, R&D Systems, Minneapolis, Minn.), according to the product's instructions.
Phosphorylation state of calcium dependent downstream effectors was analyzed. Since activation of metabotropic glutamate receptors and their associated G proteins can lead to phosphorylation of downstream effectors, phosphorylation levels of key proteins relative to PSMA expression was examined. The NanoPro system from Protein Simple was used, which allowed the determination of global phosphorylation status based on the isoelectric point changes of the target protein. The samples were prepared according to the supplier's guidelines, following lysis of the cells with the NanoPro lysis buffer. All antibodies used were purchased from Cell Signaling, detecting the total protein levels of a target protein. […] (FIG. 3b). […] It has been previously shown that either G protein-activated PI3K or calcium-activated mTORC2 phosphorylating PAK can cause Akt's phosphorylation. All graphs depict mean±s.e.m.

LNCaP-wt cells [2] = assay: Human phospho-kinase array (kinome profiling); type: cell-based; details: 48 h, 5 μM, FIG. 4a
Experimental: as §1
Considering that PSMA inhibition affected the phosphorylation of some key kinases, a human kinome-profiling array from R&D Systems was utilized to obtain a wider view of other kinases being regulated by this protein. LNCaP-wt cells were grown in the presence of a PSMA inhibitor (48 h, 5 μM) and PC3-PSMA cells were grown under puromycin-induced selection. Control cells included LNCaP-wt and PC3-wt cells grown for 48 h in complete RPMI media. The cells were lysed and processed according to the array's protocol, and the array was performed according to its supplier's guideline. Imaging of the array's membranes was performed after film exposure in the presence of a chemiluniescent substrate and HRP-conjugated detecting antibodies, processed in a dark room.

LNCaP and PC3-PSMA cells = assay: Total secreted prostaglandins; type: cell-based, human; details: 5 μM, 48 h, FIG. 5c-d
Excerpt: LNCaP cells that have a functional AR pathway were obtained from ATCC (Manassas, Va.) and grown to confluence. […] The levels of nitric oxide attributed to nitric oxide synthase's activity and the concentration of total secreted prostaglandins were quantified with the corresponding kits purchased from Cayman Chemicals (Ann Arbor, Mich.).
Furthermore, it was examined whether PSMA inhibition affects the activity of nitric oxide synthase and the levels of prostaglandins, since both Akt and Ca+2 regulate these processes. The activity of nitric oxide synthase was assessed by quantifying the sample's total nitrate levels with a kit from Cayman Chemicals, whereas the levels of total prostaglandins secreted in the cell's medium were measured with the total prostaglandin kit from Cayman Chemicals. Inhibition of PSMA was performed with a PSMA inhibitor (5 μM) at 48 h at 37° C., 5% CO2.

LNCaP-wt cells [3] = assay: Androgen receptor pathway output: secreted PSA (DELFIA PSA assay); type: cell-based, human; details: 5 μM, 48 h
Experimental: Gene expression array was performed after TRIzol-based RNA extraction on an U133A 2.0 gene array (Affymetrix, Santa Clara, Calif.). The output of the androgen receptor (AR) pathway was assessed by measuring the levels of prostate specific antigen (PSA). LNCaP cells that have a functional AR pathway were obtained from ATCC (Manassas, Va.) and grown to confluence. Then they were treated for 48 h with 2-PMPA (5 μM) for 48 h, followed by screening of the culture medium for secreted PSA with the DELFIA PSA assay (Perkin Elmer, Waltham, Mass.). The levels of nitric oxide attributed to nitric oxide synthase's activity and the concentration of total secreted prostaglandins were quantified with the corresponding kits purchased from Cayman Chemicals (Ann Arbor, Mich.). Alterations in energy production due to signaling changes were determined through quantification of the intracellular NAD+ and ATP lelels, using the NAD assay from Cayman Chemicals (Ann Arbor, Mich.) and the StayBrite ATP kit from Biovision (Milpitas, Calif.).
Since PSMA regulates Akt phosphorylation, it was investigated whether inhibition of PSMA and subsequent downregulation of Akt activity affected the status of the androgen receptor (AR) pathway. […]

[4] = tested on: LNCaP, LNCaP-KD, PC3-PSMA and PC3-wt cells; assay: In vitro chemotherapy, cell viability (Alamar blue)
Experimental: Cells were seeded in a 96-well format (2,500 cells per well), and grown for 48 h. They were then treated with the following drugs at a final concentration of 200 nM: Doxorubicin, Taxol, AZD6244, BEZ235, Lapatinib, and Velcade (all purchased from Selleck Chemicals, Houston, Tex.). For combination therapy, cells were treated with 2-PMPA (5 μM final concentration). After overnight incubation in the presence of the drugs, cell viability was determined with the Alamar blue method according to the supplier's guidelines (Life Technologies, Carlsbad, Calif.)
Given that PSMA affects the phosphorylation status of multiple targets, it was investigated whether inhibition of PSMA can counteract resistance to various chemotherapeutics used in the clinic or under clinical trials. LNCaP and PCS3-PSMA cells were seeded at a density of 2,500 cells per well in a 96-well format, and after 48 hours growth the cells were treated with the drugs (Doxorubicin (Adriamycin; DNA intercalator), Taxol (Paclitaxel; microtubule stabilizer), AZD6244 (Selumetinib; MEK1 & ERK1/2 inhibitor), BEZ235 (Dactolisib; PI3K & mTOR inhibitor), Lapatinib (EGFR and ErbB2 inhibitor), or Velcade (Bortezomib; 20S proteasome inhibitor), 200 nM final concentration in 1×PBS) or with the drugs (200 nM final concentration) and 2-PMPA (5 μM final concentration). After overnight incubation, cell viability was assessed fluorimetrically with the Alamar blue method (Invitrogen), according to the supplier's protocol.

O=C(O)CCC(CP(=O)(O)O)C(=O)O (centres unmarked) [2-PMPA]
tumor total hemoglobin levels (LNCaP-wt xenografts; FIG. 6a-b): lower total hemoglobin levels | tumor consumption of oxygen (LNCaP-wt xenografts; FIG. 6c): lower consumption of oxygen | tumor oxygenation (LNCaP-wt xenografts; versus saline): lower tumor oxygenation | tumor vascularization (LNCaP-wt xenografts; versus saline, FIG. 6a-b): lower tumor vascularization | CAMKK2 phosphorylation ([1]; PSMA-expressing cells): decreased CAMKK2's phosphorylation | phosphorylation of AMPKα ([1]; PSMA-positive cells, FIG. 3c): impaired | phosphorylation of AKT ([1]; PSMA-positive cells, FIG. 3d): impaired | CAMKK2 phosphorylation ([1]; cells lacking PSMA): no effect | phosphorylation of many proteins including TOR, p27, and Src (LNCaP-wt cells [2]): decreased | total levels of secreted prostaglandins (LNCaP and PC3-PSMA cells): decreased | PSA mRNA levels (LNCaP-wt cells [3]): did not affect PSA's mRNA levels | PSA levels in culturing medium (LNCaP-wt cells [3]; FIG. 5a): increased PSA levels | effect of 2-PMPA on toxicity of chemotherapeutics (cell viability) ([4]; PSMA-expressing cells, drugs 200 nM plus 2-PMPA 5 μM, overnight, FIG. 7a-d): enhanced the toxicity of all chemotherapeutics | cytotoxic effect of the inhibitor alone ([4]; for the study's time-course): no cytotoxic effect
